Marks after values point to notes of the source that are not given here.
Key:
DC-3F/ADII = assay: SRB cytotoxicity, DC-3F/ADII; assay type: cell-based, hamster; details: Mesocricetus auratus, DC3F
In short: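 Cell protein content measured by sulforhodamine B staining after trichloroacetic acid fixation, read at 570 nm; duplicate runs of six to seven concentrations fitted by median-effect analysis. Lines are actinomycin D-resistant DC-3F hamster lung sublines (ADII, ADX), kept under selecting drug in RPMI 1640-10% FBS.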

CCRF-CEM/Taxol® = assay: CCRF-CEM/Taxol xenograft, i.v. 6 h infusion; assay type: in vivo, nude mice; details: CCRF/Taxol Leukemia; dEpoB 30 mg/kg Q2D x 6, Taxol 15 mg/kg Q2D x 6
Source text: Treatment on days 6, 8, 10, 12 and 14.
Treatment on days 19, 21, 23, 25, 27, 39, 41, 43, 45 and 47.

[1] = test system: HT-29 Colon Adenocarcinoma; assay: HT-29 xenograft; assay type: in vivo, nude mice; details: dEpoB 30 mg/kg Q2D x 6, Taxol 15 mg/kg Q2D x 6
[2] = test system: Human Lymphoblastic Leukemia CCRF-CEM; assay: CCRF-CEM xenograft in nude mice, i.v. 6 h infusion; assay type: in vivo; details: for Average Body Weight, Day 21: initial weight
[3] = Hematology and blood chemistry toxicity in MX-1 bearing mice; details: day 30; dEpoB 25 mg/kg i.p. day 7-15 then 35 mg/kg day 17-25; Taxol 5 then 6 mg/kg; MX-1 bearing nude mice
[4] = test system: human ovarian UL3-C tumor; assay: UL3-C ovarian tumor xenograft
[5] = test system: MDR human mammary adenocarcinoma MCF-7/Adr xenograft; assay: in vivo
Experimental: DMSO was used as a vehicle for epothilones. Each mouse received ≦40 μL DMSO in all experiments.
Athymic nude mice (nu/nu) were used for MX-1 and MCF-7/Adr human mammary carcinoma xenografts. Mice were obtained from Taconic Laboratory Animals and Service (Germantown, N.Y.: outbred, Swiss background).

[6] = Dose DesoxyepoB 40, Taxol 20, i.v. infusion 6 hr on day 21,23,25,27
[7] = Table 26, Dose Q2D x 4: DesoxyepoB 40, Taxol 20
[8] = UL3-C Ovary, dEpoB 30 mg/kg Q2D x 5, Taxol 15 mg/kg Q2D x 5
[9] = dEpoB 30, Taxol 20 mg/kg, i.v. infusions on day 19,21,23,25,27
[10] = MCF-7/Adr Breast, dEpoB 30 mg/kg Q2D x 5, Taxol 24 mg/kg Q2D x 5
[11] = Taxol 24 mg/kg, 6 hr i.v. infusion Q2D x 5 (day 8-16)
[12] = dEpo B 30, Taxol 15 mg/kg, 6 hr i.v. infusion Q2D x 5 (day 8-16)
[13] = high doses: Taxol 12, Adriamycin 3, Camptothecin 3.0 mg/kg i.p. day 8,10,12,14,16
[14] = male, athymic nude (nu/nu), outbred, Swiss background, mouse, in vivo

CC(=O)O[C@H]1C(=O)[C@@]2(C)[C@H]([C@H](OC(=O)c3ccccc3)[C@]3(O)C[C@H](OC(=O)[C@H](O)[C@@H](NC(=O)c4ccccc4)c4ccccc4)C(C)=C1C3(C)C)[C@]1(OC(C)=O)CO[C@@H]1C[C@@H]2O [Taxol ®, paclitaxel]
IC50 (DC-3F/ADII): 3.21 µM
Lowest Average Tumor Size (T/C) (CCRF-CEM/Taxol®): 1.09 T/C
Tumor Disappearance (CCRF-CEM/Taxol®): 0
Lowest Average Tumor Size (T/C) [1]: 0.01 T/C
Tumor Disappearance [1]: 0
Tumor Disappearance ([2]; CCRF/CEM Leukemia, dEpoB 30 mg/kg Q2D x 5, Taxol 15 mg/kg Q2D x 5): 2/2
Average Body Weight Changes, Day 23 [2, 6]: -0.1 g
Average Body Weight Changes, Day 25 [2, 6]: -1.9 g
Average Body Weight Changes, Day 27 [2, 6]: -2.9 g
Average Body Weight Changes, Day 29 [2, 6]: -3.0 g
Average Body Weight Changes, Day 31 [2, 6]: -3.6 g
Average Body Weight Changes, Day 33 [2, 6]: -2.6 g
Average Body Weight Changes, Day 35 [2, 6]: -0.5 g
Average Body Weight Changes, Day 37 [2, 6]: +1.2 g
Average Body Weight Changes, Day 39 [2, 6]: +1.3 g
Average Body Weight Changes, Day 41 [2, 6]: +2.1 g
Average Tumor Size (T/C), Day 21 [2, 6]: 1.17 T/C
Average Tumor Size (T/C), Day 23 [2, 6]: 0.78 T/C
Average Tumor Size (T/C), Day 25 [2, 6]: 0.44 T/C
Average Tumor Size (T/C), Day 27 [2, 6]: 0.11 T/C
Average Tumor Size (T/C), Day 29 [2, 6]: 0 T/C
Average Tumor Size (T/C), Day 31 [2, 6]: 0 T/C
Average Tumor Size (T/C), Day 33 [2, 6]: 0 T/C
Average Tumor Size (T/C), Day 35 [2, 6]: 0 T/C
Proportion of Tumor Disappearance (n/total), Day 21 [2, 6]: 0/4
Proportion of Tumor Disappearance (n/total), Day 23 [2, 6]: 0/4
Proportion of Tumor Disappearance (n/total), Day 25 [2, 6]: 0/4
Proportion of Tumor Disappearance (n/total), Day 27 [2, 6]: 1/4
Proportion of Tumor Disappearance (n/total), Day 29 [2, 6]: 4/4
Proportion of Tumor Disappearance (n/total), Day 31 [2, 6]: 4/4
Proportion of Tumor Disappearance (n/total), Day 33 [2, 6]: 4/4
Proportion of Tumor Disappearance (n/total), Day 35 [2, 6]: 1/4
Proportion of Tumor Disappearance (n/total), Day 37 [2, 6]: 0/4
Proportion of Tumor Disappearance (n/total), Day 39 [2, 6]: 0/4
Proportion of Tumor Disappearance (n/total), Day 41 [2, 6]: 0.4
Average Body Weight Change, Day 23 [2, 7]: -0.1 g
Average Body Weight Change, Day 25 [2, 7]: -1.9 g
Average Body Weight Change, Day 27 [2, 7]: -2.9 g
Average Body Weight Change, Day 29 [2, 7]: -3.0 g
Average Body Weight Change, Day 31 [2, 7]: -3.6 g
Average Tumor Size (T/C), Day 23 [2, 7]: 0.78 T/C
Average Tumor Size (T/C), Day 25 [2, 7]: 0.44 T/C
Average Tumor Size (T/C), Day 27 [2, 7]: 0.11 T/C
Average Tumor Size (T/C), Day 29 [2, 7]: 0 T/C
Average Tumor Size (T/C), Day 31 [2, 7]: 0 T/C
Tumor Disappearance [2, 7]: 4/4
Average Body Weight, Day 21 [2, 7]: 29.0 g
Average Body Weight, Day 21 [2, 6]: 29.0 g
GOT [3]: 438 U/L
GPT [3]: 79 (n = 5) U/L
WBC Lymph [3]: 48%
WBC Neutrophils [3]: 51%
WBC Total [3]: 10.9 10^3/mm^3
Lowest Average Tumor Size (T/C) [4, 8]: 0.04 T/C
Tumor Disappearance [4, 8]: 0
Average Body Weight (change), Day 33 [4, 9]: -2.7 g
Average Body Weight Change, Day 27 [4, 9]: -2.9 g
Average Body Weight Change, Day 29 [4, 9]: -3.3 g
Average Body Weight Change, Day 31 [4, 9]: -2.4 g
Average Tumor Size (T/C), Day 27 [4, 9]: 0.10 T/C
Average Tumor Size (T/C), Day 29 [4, 9]: 0.08 T/C
Average Tumor Size (T/C), Day 31 [4, 9]: 0.03 T/C
Average Tumor Size (T/C), Day 33 [4, 9]: 0.04 T/C
Average Body Weight, Day 19 ([4]; initial weight, dEpoB 30, Taxol 20 mg/kg, i.v. infusions on day 19,21,23,25,27): 31.3 g
Lowest Average Tumor Size (T/C) [5, 10]: 0.71 T/C
Tumor Disappearance [5, 10]: 0
tumor size reduction ([5]; Taxol 6 mg/kg i.p. Q2Dx5, day 17): 100%
Average Body Weight (change), Day 14 [5, 11]: -4.8 g
Average Body Weight (change), Day 16 [5, 11]: -5.3 g
Average Body Weight (change), Day 18 [5, 11]: -6.0 g
Average Tumor Size (T/C), Day 14 [5, 11]: 0.73 T/C
Average Tumor Size (T/C), Day 16 [5, 11]: 0.71* T/C
Average Tumor Size (T/C), Day 18 [5, 11]: 0.73* T/C
Average Tumor Size (T/C), Day 14 [5, 12]: 0.81 T/C
Average Tumor Size (T/C), Day 16 [5, 12]: 0.89 T/C
Average Tumor Size (T/C), Day 18 [5, 12]: 0.76 T/C
Average Tumor Volume (T/C), Day 11 [5, 13]: 0.50 T/C
Average Tumor Volume (T/C), Day 13 [5, 13]: 0.51 T/C
Average Tumor Volume (T/C), Day 15 [5, 13]: 0.32 T/C
Average Tumor Volume (T/C), Day 17 [5, 13]: 0.40 T/C
Toxicity Death [5, 14]: 0/4
lethality [5, 14]: 3/7
tumor growth suppression ([5]; paclitaxel 5 mg/kg (so in the source)): slight growth suppression
